Values of other authors as cited in patent US7371422B2, “Cereal grain kernels fortified with iron and calcium” (The Procter & Gamble Company, priority 2003, dated 2008).

Details: in adult college students (Bovell-Benjamin et al. 1999); relative to ferrous sulfate

Question: With `NCC(=O)[O-].NCC(=O)[O-].[Fe+2]` [Ferrous bis-glycinate, ferrous bis-glycinate] as the compound, how does the “absorbed ... times better than ferrous sulfate” value read?
Answer: 4.7 times
